8 compounds from patent US11192850B2, “N-aryl oxamic acids” (Purdue Research Foundation, priority 2020, dated 2021) can be followed below.

Read-outs that look alike come from different tables or passages of the source.

The target of one series is MKP5 (Homo sapiens (Human), UniProt Q9Y6W6). Kind of series: pNPP inhibition assay against MKP5. The conditions noted are these: pNPP at Km of the PTP. Type of series: biochemical.
In another series the target is TC-PTP (Homo sapiens (Human), UniProt P17706). Briefly: pNPP inhibition assay against TC-PTP. In kind it is biochemical. The conditions noted are these: pNPP at Km of the PTP.
TC-PTP, sequence (P17706 5-275): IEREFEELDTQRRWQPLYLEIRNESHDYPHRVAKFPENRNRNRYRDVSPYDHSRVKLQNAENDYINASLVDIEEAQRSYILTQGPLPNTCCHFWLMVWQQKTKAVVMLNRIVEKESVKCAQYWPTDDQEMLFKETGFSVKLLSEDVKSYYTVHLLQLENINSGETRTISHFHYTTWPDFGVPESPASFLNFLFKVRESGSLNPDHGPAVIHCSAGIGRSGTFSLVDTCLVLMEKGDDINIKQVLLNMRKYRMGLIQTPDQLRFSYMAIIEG
The next series deals with SHP1 (Homo sapiens (Human), UniProt P29350). Kind of series: pNPP inhibition assay against SHP1. Type of series: biochemical.
SHP1, sequence (P29350 244-515): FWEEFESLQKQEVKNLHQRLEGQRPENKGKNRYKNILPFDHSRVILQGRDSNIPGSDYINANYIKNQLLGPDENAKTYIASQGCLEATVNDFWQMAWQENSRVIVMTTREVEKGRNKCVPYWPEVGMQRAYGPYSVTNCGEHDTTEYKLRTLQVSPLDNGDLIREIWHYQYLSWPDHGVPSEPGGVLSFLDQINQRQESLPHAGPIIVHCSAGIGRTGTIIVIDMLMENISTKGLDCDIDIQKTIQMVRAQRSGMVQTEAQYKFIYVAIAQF
The next series concerns the target PTPγ (Homo sapiens (Human), UniProt P23470). Kind of series: pNPP inhibition assay against PTPγ. The conditions noted are these: pNPP at Km of the PTP. Type of series: biochemical.
The target in the next series is LYP (Homo sapiens (Human), UniProt Q9Y2R2). Kind of series: pNPP inhibition assay against LYP. In kind it is biochemical. The settings on record: pNPP at Km of the PTP.
LYP, sequence (Q9Y2R2 24-289, species assumed): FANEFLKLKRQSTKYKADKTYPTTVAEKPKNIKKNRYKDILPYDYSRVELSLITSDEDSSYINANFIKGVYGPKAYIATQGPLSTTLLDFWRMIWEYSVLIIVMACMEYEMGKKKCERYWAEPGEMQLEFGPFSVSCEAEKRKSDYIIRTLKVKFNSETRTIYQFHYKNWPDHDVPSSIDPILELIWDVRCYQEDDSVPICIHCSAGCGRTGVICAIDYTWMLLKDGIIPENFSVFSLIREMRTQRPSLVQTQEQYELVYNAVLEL
In a further series the target is LMPTP-1 (Homo sapiens (Human), UniProt P24666). In kind it is biochemical.
LMPTP-1, sequence (P24666 whole entry, looked up): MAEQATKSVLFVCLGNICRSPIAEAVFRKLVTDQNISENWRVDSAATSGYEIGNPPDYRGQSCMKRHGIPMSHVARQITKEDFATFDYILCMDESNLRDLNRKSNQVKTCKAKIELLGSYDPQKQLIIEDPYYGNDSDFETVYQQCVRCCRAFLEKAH
In a further series the target is PTP1B (Homo sapiens (Human), UniProt P18031). Kind of series: pNPP inhibition assay against PTP1B. In kind it is biochemical.
PTP1B, sequence (P18031 3-277): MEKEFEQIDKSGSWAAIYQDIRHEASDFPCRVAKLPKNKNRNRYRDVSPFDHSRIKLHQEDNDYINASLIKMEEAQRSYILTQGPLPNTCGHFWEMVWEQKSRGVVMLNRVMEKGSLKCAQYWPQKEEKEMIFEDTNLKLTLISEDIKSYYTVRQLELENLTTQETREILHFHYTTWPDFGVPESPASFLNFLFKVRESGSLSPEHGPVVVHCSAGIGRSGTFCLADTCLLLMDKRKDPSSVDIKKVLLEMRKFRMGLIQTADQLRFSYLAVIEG
For a further series, the target named is SHP2 (Homo sapiens (Human), UniProt Q06124). Briefly: pNPP inhibition assay against SHP2. In kind it is biochemical.
SHP2, sequence (Q06124 247-517): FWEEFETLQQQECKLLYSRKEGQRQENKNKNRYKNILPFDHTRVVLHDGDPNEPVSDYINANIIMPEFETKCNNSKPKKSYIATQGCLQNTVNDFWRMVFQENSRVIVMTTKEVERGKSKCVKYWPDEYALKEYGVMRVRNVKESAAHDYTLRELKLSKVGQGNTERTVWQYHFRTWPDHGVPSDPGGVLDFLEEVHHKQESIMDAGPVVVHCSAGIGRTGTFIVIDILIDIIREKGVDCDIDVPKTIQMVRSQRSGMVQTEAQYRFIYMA
A further series has as its target PTP-PEST (Homo sapiens (Human), UniProt Q05209). Briefly: pNPP inhibition assay against PTP-PEST. Type of series: biochemical. The conditions noted are these: pNPP at Km of the PTP.
Another series concerns the target mPTPA (Mycobacterium tuberculosis (strain ATCC 25618 / H37Rv), UniProt P9WIA1). Kind of series: biochemical.
Another series deals with mPTPB (Mycobacterium tuberculosis (strain ATCC 25618 / H37Rv), UniProt I6WXK4). In kind it is biochemical.
mPTPB, sequence (I6WXK4 whole entry, looked up): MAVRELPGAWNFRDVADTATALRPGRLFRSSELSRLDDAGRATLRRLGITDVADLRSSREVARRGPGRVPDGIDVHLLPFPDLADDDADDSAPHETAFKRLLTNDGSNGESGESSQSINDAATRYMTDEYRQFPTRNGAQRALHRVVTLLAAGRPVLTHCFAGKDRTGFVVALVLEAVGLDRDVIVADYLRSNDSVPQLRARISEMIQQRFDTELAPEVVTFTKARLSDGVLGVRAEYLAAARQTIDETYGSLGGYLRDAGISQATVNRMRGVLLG
A short description of series [1]: Mouse liver microsomal stability. In kind it is in vitro ADME. The conditions noted are these: for Microsome Stability, % remaining: Mouse, after 60 min at 37° C. From the text: A sufficient oral dosage must survive first-pass clearance through the liver before reaching its biological target. The majority of drugs/xenobiotics undergo phase I metabolism, mediated by the cytochrome P450 (CYP450) family of heme-thiolate proteins predominantly in the liver. Although mouse liver microsomal (MLM) stability studies are not a perfect substitute for in vivo metabolic clearance studies, but they serve as an initial […] model system that can correlate well with human liver microsomal (HLM) stability and in vivo activity in mice. To this end, compounds 4h, 4k, 4t, 4u, and 4v were allowed to react with mouse liver microsomes and the fraction of remaining parent compound over time was determined. […] Incorporation of fluorine into drug candidates generally improves their potency, bioavailability, and metabolic stability. In addition, fluorinated molecules are in general, nontoxic and mimic the corresponding nonfluorinated analogs in their stereoelectronic properties, so the drug's affinity for the receptor either remains the same or, in some cases increases. […] So, the loss of compounds tested here is attributed only to oxidative Phase I metabolism. The high microsomal stability of these compounds could be exploited pharmacologically.
Mouse (CD-1) pooled liver microsomes purchased from Fisher Scientific, IL, USA (0.5 mg/mL, Corning Gentest 3P, cat#452702), and the assay procedures were followed as previously reported. A solution of mouse liver microsomes and 1 mM of co-factor NADPH in 1 ml of phosphate buffer saline (pH=7.4) was prewarmed to 37° C. in an Eppendorf tube. Then 10 μL of a test solution (10 mM DMSO stock) was added to initiate the reaction. Verapamil-HCl was used as a positive control. […] The incubation mixture was kept at 37° C., and 50 μL aliquots were taken at times of 0, 5, 10, 15, 30 or 60 min. Each of the aliquot was quenched using 200 μL of ice-cold acetonitrile. The mixtures were vigorously vortexed and centrifuged to remove the precipitated protein and the supernatants were analyzed by an Agilent Technologies 6470 series, triple quadrupole LC/MS spectrometer to quantitate the remaining parent compound. The percent of the parent compound remaining was calculated from the formula: % parent compound remaining=(concentration at 60 min/concentration at 0 min)*100

The next series addresses PTPα (Homo sapiens (Human), UniProt P18433). Briefly: pNPP inhibition assay against PTPα. Type of series: biochemical. The conditions noted are these: pNPP at Km of the PTP.
The target of another series is PTPβ (Homo sapiens (Human), UniProt P23467). Kind of series: biochemical. The settings on record: pNPP at Km of the PTP.
The target in a further series is Laforin (Homo sapiens (Human), UniProt O95278). Kind of series: pNPP inhibition assay against Laforin. In kind it is biochemical. The settings on record: pNPP at Km of the PTP.
Laforin, sequence (O95278 156-323, species assumed): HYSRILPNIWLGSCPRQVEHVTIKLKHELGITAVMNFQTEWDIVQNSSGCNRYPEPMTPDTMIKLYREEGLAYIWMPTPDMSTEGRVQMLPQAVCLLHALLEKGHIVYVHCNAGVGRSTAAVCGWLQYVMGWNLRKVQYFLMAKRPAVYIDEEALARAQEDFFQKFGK
In another series the target is PTP-MEG2 (Homo sapiens (Human), UniProt P43378). Briefly: pNPP inhibition assay against PTP-MEG2. In kind it is biochemical. The settings on record: pNPP at Km of the PTP.
A further series addresses PTPμ (Homo sapiens (Human), UniProt P28827). Kind of series: pNPP inhibition assay against PTPμ. Type of series: biochemical. The conditions noted are these: pNPP at Km of the PTP.
Series [2] can be described thus: Log D by shake flask method. Type of series: physicochemical. The settings on record: n-octanol and pH 7.4 PBS.
Method: To determine the lipophilicity of our inhibitors, the Log D at pH 7.4 was measured using the shake flask method. […] The tubes were shaken for 8 hours, centrifuged at 10000 rpm for 5 minutes then n-octanol and phosphate buffered saline layers separated. […] The ratios of AUC of the peaks were used to calculate the Log D in accordance with the equation: Log D=Log10(AUC of octanol layer/AUC of phosphate buffered saline layer)
For the next series, the target named is CDC14A (Homo sapiens (Human), UniProt Q9UNH5). Kind of series: pNPP inhibition assay against CDC14A. Type of series: biochemical. The conditions noted are these: pNPP at Km of the PTP.
CDC14A, sequence (Q9UNH5 179-336, species assumed): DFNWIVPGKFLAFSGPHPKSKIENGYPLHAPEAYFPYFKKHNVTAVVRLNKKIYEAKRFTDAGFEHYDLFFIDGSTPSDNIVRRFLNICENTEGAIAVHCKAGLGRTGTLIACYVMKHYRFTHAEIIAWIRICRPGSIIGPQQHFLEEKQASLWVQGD
Series [3] in a line: Kinetic solubility in pH 7.4 PBS. In kind it is physicochemical. The settings on record: pH 7.4 PBS buffer.
Method: The resulting mixture was stirred at 500 rpm for 90 minutes and then filtered using 0.45 μm PVDF membrane filter. After filtration, the concentration of corresponding compound was determined by HPLC, comparing the AUC obtained with that from a standard solution of the compound. Data represent the mean (t standard deviation, SD) of three separate experiments, performed in triplicate.
The next series addresses FAP-1 (Homo sapiens (Human), UniProt Q12923). Kind of series: pNPP inhibition assay against FAP-1. Type of series: biochemical. The conditions noted are these: pNPP at Km of the PTP.
For a further series, the target named is CD45 (Homo sapiens (Human), UniProt P08575). Kind of series: pNPP inhibition assay against CD45. Type of series: biochemical. The settings on record: pNPP at Km of the PTP.
CD45, sequence (P08575 599-1306, species assumed): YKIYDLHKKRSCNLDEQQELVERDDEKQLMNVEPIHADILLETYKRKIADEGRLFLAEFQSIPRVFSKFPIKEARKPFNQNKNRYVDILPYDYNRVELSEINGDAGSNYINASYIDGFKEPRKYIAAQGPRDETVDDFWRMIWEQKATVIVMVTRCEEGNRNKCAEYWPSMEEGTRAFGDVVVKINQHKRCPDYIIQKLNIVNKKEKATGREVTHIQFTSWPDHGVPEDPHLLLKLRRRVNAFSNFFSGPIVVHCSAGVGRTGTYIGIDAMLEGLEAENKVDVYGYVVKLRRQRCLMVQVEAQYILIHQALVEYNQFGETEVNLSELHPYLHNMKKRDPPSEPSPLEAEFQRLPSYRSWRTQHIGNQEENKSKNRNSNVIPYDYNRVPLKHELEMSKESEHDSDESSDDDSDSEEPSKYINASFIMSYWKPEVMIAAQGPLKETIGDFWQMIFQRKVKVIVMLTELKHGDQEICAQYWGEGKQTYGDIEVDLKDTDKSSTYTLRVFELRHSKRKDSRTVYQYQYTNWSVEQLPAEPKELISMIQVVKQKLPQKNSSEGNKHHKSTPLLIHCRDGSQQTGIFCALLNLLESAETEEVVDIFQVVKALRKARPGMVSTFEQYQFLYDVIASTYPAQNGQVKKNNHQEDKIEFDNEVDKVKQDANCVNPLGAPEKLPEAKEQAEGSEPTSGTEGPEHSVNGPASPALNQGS
The target in the next series is HePTP (Homo sapiens (Human), UniProt P35236). Briefly: pNPP inhibition assay against HePTP. In kind it is biochemical. The settings on record: pNPP at Km of the PTP.
Another series deals with DEP-1 (Homo sapiens (Human), UniProt Q12913). Kind of series: pNPP inhibition assay against DEP-1. In kind it is biochemical. The conditions noted are these: pNPP at Km of the PTP.
A further series deals with VHR (Homo sapiens (Human), UniProt P51452). Briefly: pNPP inhibition assay against VHR. In kind it is biochemical. The conditions noted are these: pNPP at Km of the PTP.
The target of a further series is MKP3 (Homo sapiens (Human), UniProt Q16828). Kind of series: pNPP inhibition assay against MKP3. Type of series: biochemical. The settings on record: pNPP at Km of the PTP.
MKP3, sequence (Q16828 206-349, species assumed): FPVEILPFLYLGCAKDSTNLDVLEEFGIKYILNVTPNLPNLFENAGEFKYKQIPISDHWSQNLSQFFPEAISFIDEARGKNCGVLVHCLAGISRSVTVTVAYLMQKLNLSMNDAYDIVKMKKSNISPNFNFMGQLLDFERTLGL
The next series deals with STEP (Homo sapiens (Human), UniProt P54829). Kind of series: pNPP inhibition assay against STEP. Type of series: biochemical. The conditions noted are these: pNPP at Km of the PTP.
The nature of series [4]: Solubility observed for analogs (qualitative).

PTPγ, sequence (P23470 763-1445): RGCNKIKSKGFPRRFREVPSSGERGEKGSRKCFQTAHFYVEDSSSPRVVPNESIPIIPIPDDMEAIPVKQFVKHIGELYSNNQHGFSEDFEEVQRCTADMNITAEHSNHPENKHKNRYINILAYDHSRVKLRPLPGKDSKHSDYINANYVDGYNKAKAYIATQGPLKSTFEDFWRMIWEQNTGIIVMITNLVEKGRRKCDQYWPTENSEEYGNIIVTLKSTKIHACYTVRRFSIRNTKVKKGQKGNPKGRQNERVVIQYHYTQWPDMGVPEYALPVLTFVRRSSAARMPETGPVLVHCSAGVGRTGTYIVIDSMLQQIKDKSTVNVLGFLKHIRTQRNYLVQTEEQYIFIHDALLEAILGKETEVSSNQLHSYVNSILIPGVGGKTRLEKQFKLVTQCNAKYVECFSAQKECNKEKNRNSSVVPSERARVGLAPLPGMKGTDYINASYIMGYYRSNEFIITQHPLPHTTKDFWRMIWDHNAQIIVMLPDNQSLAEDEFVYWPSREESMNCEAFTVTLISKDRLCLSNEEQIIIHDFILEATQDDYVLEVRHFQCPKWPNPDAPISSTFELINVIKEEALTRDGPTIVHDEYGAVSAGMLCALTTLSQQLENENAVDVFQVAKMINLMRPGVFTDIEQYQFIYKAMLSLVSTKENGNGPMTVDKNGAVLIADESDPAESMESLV
MKP5, sequence (Q9Y6W6 321-464, species assumed): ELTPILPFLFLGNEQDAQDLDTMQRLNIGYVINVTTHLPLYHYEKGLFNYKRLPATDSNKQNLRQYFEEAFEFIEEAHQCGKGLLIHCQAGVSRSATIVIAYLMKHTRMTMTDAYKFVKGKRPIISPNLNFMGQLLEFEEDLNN
PTP-PEST, sequence (Q05209 28-293, species assumed): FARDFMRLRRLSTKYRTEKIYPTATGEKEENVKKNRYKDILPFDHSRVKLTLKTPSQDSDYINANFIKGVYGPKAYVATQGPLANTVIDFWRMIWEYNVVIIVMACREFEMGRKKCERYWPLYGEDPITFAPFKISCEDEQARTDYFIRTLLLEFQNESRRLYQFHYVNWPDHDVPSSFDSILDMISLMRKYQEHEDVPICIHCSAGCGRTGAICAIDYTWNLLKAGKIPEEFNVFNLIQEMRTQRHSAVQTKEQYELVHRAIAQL
PTPα, sequence (P18433 whole entry, looked up): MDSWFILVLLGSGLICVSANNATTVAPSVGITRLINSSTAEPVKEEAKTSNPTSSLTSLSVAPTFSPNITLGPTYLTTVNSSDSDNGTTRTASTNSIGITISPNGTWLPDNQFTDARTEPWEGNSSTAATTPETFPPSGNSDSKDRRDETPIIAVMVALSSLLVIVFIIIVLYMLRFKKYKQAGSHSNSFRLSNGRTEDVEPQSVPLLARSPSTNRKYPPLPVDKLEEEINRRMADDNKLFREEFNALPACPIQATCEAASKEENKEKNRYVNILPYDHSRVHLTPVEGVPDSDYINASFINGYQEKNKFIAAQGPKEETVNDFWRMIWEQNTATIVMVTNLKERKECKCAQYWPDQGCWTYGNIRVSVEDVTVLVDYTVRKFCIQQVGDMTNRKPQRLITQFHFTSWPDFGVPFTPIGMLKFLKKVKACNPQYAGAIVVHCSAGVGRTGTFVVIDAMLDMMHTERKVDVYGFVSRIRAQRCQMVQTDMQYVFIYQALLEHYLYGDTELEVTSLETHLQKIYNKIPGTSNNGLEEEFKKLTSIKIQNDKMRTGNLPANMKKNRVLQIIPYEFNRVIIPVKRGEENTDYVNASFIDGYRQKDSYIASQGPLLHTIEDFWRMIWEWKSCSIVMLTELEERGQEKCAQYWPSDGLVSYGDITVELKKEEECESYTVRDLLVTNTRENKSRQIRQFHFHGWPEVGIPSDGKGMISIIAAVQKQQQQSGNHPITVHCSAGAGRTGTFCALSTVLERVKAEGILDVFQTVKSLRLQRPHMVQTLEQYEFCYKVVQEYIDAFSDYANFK

Regarding `CN(C)c1cc(O)c(C(=O)O)cc1C#Cc1cccc(NC(=O)C(=O)O)c1` [Compound 4g, 5-((3-(carboxyformamido)phenyl)ethynyl)-4-(dimethylamino)-2-hydroxybenzoic Acid], the IC50 was above 50 µM on MKP5; above 50 µM at TC-PTP; 38.5 ± 4.2 µM against SHP1; above 50 µM at PTPγ; above 50 µM against LYP; 34.5 µM at LMPTP-1. Moreover, the half-maximal inhibitory concentration (IC50) is 45.1 ± 4.5 µM against PTP1B; 47.5 ± 3.5 µM against SHP2; above 50 µM at PTP-PEST; above 50 µM on mPTPA; 0.16 µM at mPTPB.

As to `CC(C)(C)c1ccc(C#Cc2ccc(NC(=O)C(=O)O)cc2)cc1` [Compound 4h, 2-((4-((4-(tert-butyl)phenyl)ethynyl)phenyl)amino)-2-oxoacetic Acid], the IC50 is above 50 µM at SHP1 (pNPP at Km of the PTP); above 50 µM on PTP1B (pNPP at Km of the PTP); above 50 µM on SHP2 (pNPP at Km of the PTP); 0.026 ± 0.005 µM against mPTPB (pNPP assay, pH 7.0, 3.0 mM pNPP). Besides, the “Microsome Stability, % remaining” value in series [1] stood at 27 ± 2.4%. In addition, the microsomal stability ranking result in series [1] (mouse liver microsomes, last time point) is “least stable”.

With `O=C(O)C(=O)Nc1ccc(C#Cc2ccc(C(F)(F)F)cc2)cc1` [Compound 4k, 2-oxo-2-((4-((4-(trifluoromethyl)phenyl)ethynyl)phenyl)amino)acetic Acid], the IC50 is above 30 µM at PTPα; above 30 µM against PTPβ; above 30 µM on MKP5; above 50 µM at TC-PTP; above 30 µM against Laforin; above 50 µM at SHP1 (pNPP at Km of the PTP). In addition, the IC50 is above 30 µM at PTP-MEG2; above 30 µM on PTPγ; above 50 µM on LYP; above 30 µM against PTPμ; above 30 µM on CDC14A; above 30 µM at FAP-1. The IC50 against PTP1B (pNPP at Km of the PTP) is above 50 µM; at CD45, above 30 µM; at HePTP it was above 50 µM; against SHP2 (pNPP at Km of the PTP) it was above 50 µM; on PTP-PEST, above 30 µM; on DEP-1 it was above 30 µM. For the same compound, the IC50 at VHR was above 30 µM; against MKP3, above 30 µM; against STEP, above 30 µM; on mPTPA it was above 50 µM. Further, in [1], the “Microsome Stability, % remaining” value is 38 ± 1.6%. In series [2], this compound showed a LogD of 1.97. In addition, in series [3], the “Aq. Sol (μM), kinetic solubility” value was 22.4 µM.

For the compound `O=C(O)C(=O)Nc1ccc(C#Cc2ccc3ccccc3c2)cc1` [Compound 4q, 2-((4-(naphthalen-2-ylethynyl)phenyl)amino)-2-oxoacetic Acid], the IC50 against SHP1 (pNPP at Km of the PTP), at PTP1B (pNPP at Km of the PTP) and against SHP2 (pNPP at Km of the PTP) was above 50 µM in each case. In series [4], the “solubility (in words)” value is “poor solubility”.

As to `O=C(O)C(=O)Nc1ccc(C#Cc2ccc(OCc3ccccc3)cc2)cc1` [Compound 4r, 2-((4-((4-(benzyloxy)phenyl)ethynyl)phenyl)amino)-2-oxoacetic Acid], the values for the concentration for half-maximal inhibition (IC50) on SHP1 (pNPP at Km of the PTP), against PTP1B (pNPP at Km of the PTP) and on SHP2 (pNPP at Km of the PTP) were 16.8 ± 3.3 µM, 38.9 ± 5 µM and 15.3 ± 2.1 µM, respectively. In addition, in [4], the “solubility (in words)” value was “poor solubility”.

As for `O=C(O)C(=O)Nc1ccc(C#Cc2ccc(C(F)(F)F)cc2Cl)cc1` [Compound 4t, 2-((4-((2-chloro-4-(trifluoromethyl)phenyl)ethynyl)phenyl)amino)-2-oxoacetic Acid], the IC50 at MKP5, on TC-PTP, on SHP1 (pNPP at Km of the PTP), against PTPγ, against LYP and at PTP1B (pNPP at Km of the PTP) was above 30 µM each time. Also, the IC50 at SHP2 (pNPP at Km of the PTP), at PTP-PEST and on mPTPA was above 30 µM throughout. In series [1], the “Microsome Stability, % remaining” value came to 56 ± 1.5%.

Turning to `O=C(O)C(=O)Nc1ccc(C#Cc2ccc(C(F)(F)F)cc2Br)cc1` [Compound 4u, 2-((4-((2-bromo-4-(trifluoromethyl)phenyl)ethynyl)phenyl)amino)-2-oxoacetic Acid], the results for the concentration for half-maximal inhibition (IC50) against SHP1 (pNPP at Km of the PTP), against PTP1B (pNPP at Km of the PTP) and at SHP2 (pNPP at Km of the PTP) were 33.8 ± 6.8 µM, 16.4 ± 2.9 µM and 15.2 ± 3.4 µM, respectively. For the same compound, in [1], the “Microsome Stability, % remaining” value turned out to be 60 ± 3.8%.

`O=C(O)C(=O)Nc1ccc(C#Cc2ccc(C(F)(F)F)cc2F)cc1` [Compound 4v, 2-((4-((2-fluoro-4-(trifluoromethyl)phenyl)ethynyl)phenyl)amino)-2-oxoacetic Acid]: the IC50 against SHP1 (pNPP at Km of the PTP), against PTP1B (pNPP at Km of the PTP) and at SHP2 (pNPP at Km of the PTP) was above 30 µM each time. In addition, the “Microsome Stability, % remaining” value in [1] turned out to be 72 ± 2.8%.
